# Test results: PubChem BioAssay (NCI)
#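 A five-concentration, 48-hour dose response in 96-well plates underlies each endpoint, interpolated linearly between surrounding concentrations. GI50: concentration for 50% inhibition of growth. TGI: concentration producing complete growth inhibition.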
# Test system: MDA-MB-468 breast
# Experiment: inhibition of tumour cell growth, NCI panel, 48 h
Structure (SMILES),GI50 [µM],TGI [µM]
Cc1cccc(Oc2ccc(Nc3ncnc4ccc(NC(=O)CN5CCN(C)CC5)cc34)cc2Cl)c1,0.448,2.07
O=C1Nc2cc(OC(F)(F)F)ccc2Oc2ccc(-c3ccnc(N4CC[C@H](O)C4)c3)cc21,0.0129,0.368
Nc1nc(N)c2c(n1)NC(c1ccc(C(F)(F)F)cc1)CC(c1ccc(Nc3nc(NCCO)nc(Nc4ccc(Cl)cc4)n3)cc1)=N2 (stereo not given),1.58,3.21
Cc1ccc(-c2nc3nc(-c4ccc(Cl)cc4)nc(N4CCCNCC4)c3o2)cc1,1.78,3.42
C=C1C(=O)O[C@H]2[C@H]1CC/C(Cn1cc(Cn3ccc4cc(Cl)ccc43)nn1)=C\CC[C@@]1(C)O[C@@H]21,0.908,2.55
C[C@@H](Oc1cc(-c2cnn(C3CC4(CCNCC4)C3)c2)cnc1N)c1c(F)ccc(Cl)c1Cl,0.562,2.12
CNC(=O)c1ccc(Nc2nc(OC3CCCC3)c3c(-c4ccc5nc(C)oc5c4)c[nH]c3n2)c(OC)c1,0.424,27.6
CC1=C([Se]CC(OC(=O)[C@@H](CSSC(C)(C)C)NC(=O)C(C)(C)C)C(=O)NCCCCCC(=O)OCc2ccccc2)C(=O)c2ccccc2C1=O (stereo not given in full),2.19,4.35
O=S(=O)(NCCNc1cc(-c2cn(-c3ccccc3)nc2-c2cccc(O)c2)ccn1)c1ccc(F)cc1,1.88,5.33
COc1cc(N)ccc1Nc1c2ccccc2nc2ccccc12,11.8,28.8
C/C(=C\c1ccn(-c2ccc(N)cc2C(F)(F)F)n1)[C@@H]1C[C@@H]2O[C@]2(C)CCC[C@H](C)[C@H](O)[C@@H](C)C(=O)C(C)(C)[C@@H](O)CC(=O)O1,0.289,0.873
CCN(CC)CCCN1C(=O)c2c(c(C)c3c(oc4cc(O)ccc43)c2C)C1=O,1.57,3.13
CCN(CC)CCCC(C)N/C(c1cccc(OC)c1)=c1\c(=O)[nH]n(-c2c3ccccc3nc3ccccc23)c(=O)\c1=C(/NC(C)CCCN(CC)CC)c1cccc(OC)c1 (stereo not given),1.18,3.09
Nc1c(C(=O)Nc2cccc3ccccc23)sc2nc3c(cc12)CCCCC3,0.231,> 50
Cc1nn(-c2ccccc2)cc1/C=N/Nc1nc(Nc2ccccc2)nc(Nc2ccc(S(N)(=O)=O)cc2)n1,1.52,3.27
O=c1[nH]cnc2c1nnn2[C@@H]1O[C@H](CO)[C@@H](O)[C@H]1O,1.54,24.5
O=C(Nc1cccc(-c2nc3ccccc3[nH]2)c1)c1cccc(NC(=O)c2ccco2)c1,1.74,3.99
Fc1ccc(Nc2ccc3cc(OCCCN4CCOCC4)ccc3n2)cc1F,3.35,19.3
CN(C)c1ccc2[nH]c(O)c(C=Nc3ccc(S(N)(=O)=O)cc3)c2c1,> 25,> 25
C[C@]12CC[C@H]3[C@@H](CC=C4C[C@@H](O)CC[C@@]43C)[C@@H]1C/C(=C\c1cccc(OCCCn3ccnc3)c1)[C@@H]2O,7.43,31.3
Cc1c(N(C(=O)c2cc(-c3cc(Cl)ccc3C(=O)N3Cc4ccccc4C[C@H]3CN3CCOCC3)n(C)c2C)c2ccc(O)cc2)cc(C#N)n1C,4.7,25.2
CCC[C@H](Nc1nc(-c2ccc(NC(=O)NCC)c(OC)c2)ncc1C)c1cccnc1,0.0246,0.0709
CC(=O)O[C@H]1C(=O)[C@@]2(C)[C@H]([C@H](OC(=O)c3ccccc3)[C@]3(O)C[C@H](OC(=O)[C@H](OC(=O)CCC(=O)OC4CCC(S/N=C(N)/N=C(\N)N(C)C)CC4)[C@@H](NC(=O)c4ccccc4)c4ccccc4)C(C)=C1C3(C)C)[C@]1(OC(C)=O)CO[C@@H]1C[C@@H]2O (stereo not given in full),0.00732,0.0433
CCCCCCCCO/N=C\c1c2c(O)c3c(O)c(C)c4c(c3c1O)C(=O)C(C)(O/C=C\C(OC)C(C)C(OC(C)=O)C(C)C(O)C(C)C(O)C(C)/C=C\C=C(\C)C(=O)N2)O4 (stereo not given),1.37,5.11
C=C1C(=O)O[C@H]2[C@H]1CC/C(COC(=O)N[C@@H](Cc1c[nH]c3ccccc13)C(=O)OC)=C\CC[C@@]1(C)O[C@@H]21,1.23,3.05
